From patent publication US11945794B2, “Nuclear transport modulators and uses thereof” (Karyopharm Therapeutics Inc., priority 2013, dated 2024)

Assays:
Assay type in all cases: cell-based
[1] = system: MM1S cells; test: MTT cell proliferation assay; conditions: Homo sapiens, MM1.S, approximately 64-72 hours
Protocol: (§1) The MTT cell proliferation assay was used to study the cytotoxic properties of the compounds. The assay was performed according to the method described by Roche Molecular Biochemicals, with minor modifications. The assay is based on the cleavage of the tetrazolium salt, MTT, in the presence of an electron-coupling reagent. The water-insoluble formazan salt produced must be solubilized in an additional step. Cells grown in a 96-well tissue culture plate were incubated with the MTT solution for approximately 4 hours. After this incubation period, a water-insoluble formazan dye formed. After solubilization, the formazan dye was quantitated using a scanning multi-well spectrophotometer (ELISA reader). […] The cells were seeded at 5,000-10,000 cells in each well of 96-well plate in 100 μL of fresh culture medium and were allowed to attach overnight. The stock solutions of the compounds were diluted in 100 μL cell culture medium to obtain eight concentrations of each test compound, ranging from 1 nM to 30 μM. […] All optical densities were measured at 490 nm using a Vmax Kinetic Microplate Reader (Molecular Devices). In most cases, the assay was performed in duplicate and the results were presented as a mean percent inhibition to the negative control±SE. The following formula was used to calculate the percent of inhibition: Inhibition (%)=(1−(ODo/OD))×100.
(§2) The compounds were tested against Z138, MM1S and 3T3 cells. The Z138 cell line is a mature B-cell acute lymphoblastic leukemia cell line derived from a patient with chronic lumphocytic leukemia. The MM1S cell line was established from the peripheral blood of a human multiple myeloma patient. 3T3 cells are standard fibroblast cells; they were originally isolated from Swiss mouse embryo tissue.

[2] = system: Z138 cells; test: MTT cell proliferation assay; conditions: Homo sapiens, Z-138, approximately 64-72 hours
Protocol: as §1, §2

[3] = system: 3T3 cells; test: MTT cell proliferation assay; conditions: Mus musculus, NIH3T3, approximately 64-72 hours
Protocol: as §1, §2

[4] = molecular target: T1, CRM1 (Homo sapiens, UniProt O14980); test: Inhibition of nuclear export, RevGFP assay in U2OS-RevGFP cells; conditions: approximately 1 hour incubation
T1 construct: endogenous in cells; host or cells: U2OS cells stably expressing Rev-GFP
Protocol: The inhibition of CRM1 mediated nuclear export by compounds of the invention was determined in a RevGFP assay. Rev is a protein from human immunodeficiency virus type 1 (HIV-1) and contains a nuclear export signal (NES) in its C-terminal domain and a nuclear localization signal (NLS) in its N-terminal domain. Nuclear export of Rev protein is dependent on the classical NES/CRM1 pathway (Neville et al, 1997, Kau et al, 2003).
In this assay, U2OS-RevGFP cells were seeded onto clear-bottom, black, 384-well plates the day before the experiment. Compounds were serially diluted 1:2 starting from 40 μM in a separate 384-well plate in DMEM, and then transferred onto cells. Cells were incubated with compound for approximately 1 hour before fixation with 3.7% formaldehyde and nuclei staining with Hoechst 33258. The amount of GFP in cell nuclei was measured and compound IC50s were determined (Kau et al, 2003).

T1 sequence (O14980 whole entry): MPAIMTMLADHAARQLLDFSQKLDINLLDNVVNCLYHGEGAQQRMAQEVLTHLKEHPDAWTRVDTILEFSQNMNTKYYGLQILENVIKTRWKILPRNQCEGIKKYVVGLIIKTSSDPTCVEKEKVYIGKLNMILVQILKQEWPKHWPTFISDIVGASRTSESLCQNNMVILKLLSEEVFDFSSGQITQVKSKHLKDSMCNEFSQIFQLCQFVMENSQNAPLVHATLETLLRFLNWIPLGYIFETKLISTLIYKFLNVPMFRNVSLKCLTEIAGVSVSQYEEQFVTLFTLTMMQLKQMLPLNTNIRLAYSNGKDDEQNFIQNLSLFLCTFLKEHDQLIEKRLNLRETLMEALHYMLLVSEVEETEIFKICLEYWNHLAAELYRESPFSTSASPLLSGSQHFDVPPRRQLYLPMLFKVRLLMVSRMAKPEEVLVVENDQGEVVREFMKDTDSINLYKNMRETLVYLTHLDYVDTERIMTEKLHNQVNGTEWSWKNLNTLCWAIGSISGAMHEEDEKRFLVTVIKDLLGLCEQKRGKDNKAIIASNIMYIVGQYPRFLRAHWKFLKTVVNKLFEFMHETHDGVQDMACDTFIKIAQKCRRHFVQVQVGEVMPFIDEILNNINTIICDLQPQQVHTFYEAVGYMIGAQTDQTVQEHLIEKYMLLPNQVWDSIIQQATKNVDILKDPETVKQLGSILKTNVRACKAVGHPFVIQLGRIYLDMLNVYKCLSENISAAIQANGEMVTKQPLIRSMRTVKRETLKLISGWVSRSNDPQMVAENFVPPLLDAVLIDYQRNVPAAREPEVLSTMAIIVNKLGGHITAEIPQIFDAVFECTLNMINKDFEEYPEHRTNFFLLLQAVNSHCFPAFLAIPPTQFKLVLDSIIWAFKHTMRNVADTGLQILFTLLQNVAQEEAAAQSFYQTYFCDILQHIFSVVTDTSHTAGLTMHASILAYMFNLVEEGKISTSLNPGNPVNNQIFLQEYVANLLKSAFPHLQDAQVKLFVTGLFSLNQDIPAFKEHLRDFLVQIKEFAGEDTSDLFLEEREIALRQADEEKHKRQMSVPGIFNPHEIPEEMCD

Q: Which IC50 [1] does the source give for `N#CC(=Cn1cnc(-c2cc(C(F)(F)F)cc(C(F)(F)F)c2)n1)c1ccccn1` [Compound 100, 3-(3-(3,5-bis(trifluoromethyl)phenyl)-1H-1,2,4-triazol-1-yl)-2-(pyridin-2-yl)acrylonitrile] here?
A: > 30 µM

Q: And the IC50 [2]?
A: > 30 µM

Q: And the IC50 [3]?
A: > 30 µM

Q: And the IC50 [4]?
A: > 30 µM

Q: `CC(C)OC(=O)/C(=C/n1cnc(-c2cc(C(F)(F)F)cc(C(F)(F)F)c2)n1)c1cccnc1` [Compound 101, (E)-isopropyl 3-(3-(3,5-bis(trifluoromethyl)phenyl)-1H-1,2,4-triazol-1-yl)-2-(pyridin-3-yl)acrylate] was tested. Which IC50 [1] did it give?
A: < 0.1 µM

Q: What about the IC50 [2] of the same compound?
A: 0.1 to 5 µM

Q: And the IC50 [3]?
A: 5 to 30 µM

Q: What about the IC50 [4] of the same compound?
A: 5 to 30 µM

Q: For `N#C/C(=C/n1cnc(-c2cc(C(F)(F)F)cc(C(F)(F)F)c2)n1)c1cccnc1` [Compound 102, (E)-3-(3-(3,5-bis(trifluoromethyl)phenyl)-1H-1,2,4-triazol-1-yl)-2-(pyridin-3-yl)acrylonitrile], which IC50 [1] is on record?
A: 0.1 to 5 µM

Q: What about the IC50 [2] of the same compound?
A: 0.1 to 5 µM

Q: And the IC50 [3]?
A: 5 to 30 µM

Q: What about the IC50 [4] of the same compound?
A: 0.1 to 5 µM

Q: `NC(=O)/C(=C/n1cnc(-c2cc(C(F)(F)F)cc(C(F)(F)F)c2)n1)c1cccnc1` [Compound 104, (E)-3-(3-(3,5-bis(trifluoromethyl)phenyl)-1H-1,2,4-triazol-1-yl)-2-(pyridin-3-yl)acrylamide] was tested. Which IC50 [1] did it give?
A: < 0.1 µM

Q: And the IC50 [2]?
A: < 0.1 µM

Q: And the IC50 [3]?
A: 0.1 to 5 µM

Q: And the IC50 [4]?
A: 0.1 to 5 µM

Q: Which IC50 [1] does the source give for `N#C/C(=C/n1cnc(-c2cc(C(F)(F)F)cc(C(F)(F)F)c2)n1)c1ccncc1` [Compound 105, (E)-3-(3-(3,5-bis(trifluoromethyl)phenyl)-1H-1,2,4-triazol-1-yl)-2-(pyridin-4-yl)acrylonitrile] here?
A: 0.1 to 5 µM

Q: What about the IC50 [3] of the same compound?
A: > 30 µM

Q: What about the IC50 [4] of the same compound?
A: 0.1 to 5 µM

Q: Which results are given for `NC(=O)/C(=C/n1cnc(-c2cc(C(F)(F)F)cc(C(F)(F)F)c2)n1)c1ccncc1` [Compound 108, (E)-3-(3-(3,5-bis(trifluoromethyl)phenyl)-1H-1,2,4-triazol-1-yl)-2-(pyridin-4-yl)acrylamide]?
A: IC50 [1]: < 0.1 µM; IC50 [2]: 0.1 to 5 µM; IC50 [3]: > 30 µM; IC50 [4]: < 0.1 µM

Q: How did the IC50 [1] turn out when `NC(=O)/C(=C/n1cnc(-c2cc(C(F)(F)F)cc(C(F)(F)F)c2)n1)c1nccs1` [Compound 111, (Z)-3-(3-(3,5-bis(trifluoromethyl)phenyl)-1H-1,2,4-triazol-1-yl)-2-(thiazol-2-yl)acrylamide] was run?
A: < 0.1 µM

Q: And the IC50 [3]?
A: > 30 µM

Q: And the IC50 [4]?
A: < 0.1 µM

Q: Which IC50 [1] does the source give for `CN(C)C(=O)/C(=C/n1cnc(-c2cc(C(F)(F)F)cc(C(F)(F)F)c2)n1)c1ccncc1` [Compound 113, (E)-3-(3-(3,5-bis(trifluoromethyl)phenyl)-1H-1,2,4-triazol-1-yl)-N,N-dimethyl-2-(pyridin-4-yl)acrylamide] here?
A: 0.1 to 5 µM

Q: And the IC50 [4]?
A: 5 to 30 µM

Q: Which results are given for `Cn1cc(/C(=C\n2cnc(-c3cc(C(F)(F)F)cc(C(F)(F)F)c3)n2)C(N)=O)cn1` [Compound 114, (E)-3-(3-(3,5-bis(trifluoromethyl)phenyl)-1H-1,2,4-triazol-1-yl)-2-(1-methyl-1H-pyrazol-4-yl)acrylamide]?
A: IC50 [1]: < 0.1 µM; IC50 [4]: 0.1 to 5 µM

Q: What does the source list for `CC(C)OC(=O)/C(=C/n1cnc(-c2cc(C(F)(F)F)cc(C(F)(F)F)c2)n1)c1cncnc1` [Compound 115, isopropyl (E)-3-(3-(3,5-bis(trifluoromethyl)phenyl)-1H-1,2,4-triazol-1-yl)-2-(pyrimidin-5-yl)acrylate]?
A: IC50 [1]: 0.1 to 5 µM; IC50 [4]: 0.1 to 5 µM

Q: How did the IC50 [1] turn out when `Cc1noc(C)c1/C(=C\n1cnc(-c2cc(C(F)(F)F)cc(C(F)(F)F)c2)n1)C(=O)OC(C)C` [Compound 116, isopropyl (E)-3-(3-(3,5-bis (trifluoromethyl)phenyl)-1H-1,2,4-triazol-1-yl)-2-(3,5-dimethylisoxazol-4-yl) acrylate] was run?
A: 0.1 to 5 µM

Q: And the IC50 [4]?
A: 0.1 to 5 µM
